pIC50: −log10 of the molar value. Where two headings read alike, the source gives them in different places. Values belong to the molecule of their own block, whether it stands above or below them. Starred links: 1 amine or outer side, 2 acyl side, 3 side chain; linkers in the order of their positions; H or OH if unused. Positions of bridges follow the written chain, without caps; N, C: chain ends. Non-standard residues stand in square brackets, D forms with d. Residues, ends and D or L forms follow the SMILES beside them. *: point of attachment. Phe(3-Me) = Cc1cccc(C[C@H](N)C(=O)O)c1; γGlu = O=C(O)[C@H](CCC(=O)[*:2])N[*:1]; 2Nal = N[C@@H](Cc1ccc2ccccc2c1)C(=O)O; βAsp = O=C(O)[C@H](CC(=O)[*:2])N[*:1]; Ala(cPr) = N[C@@H](CC1CC1)C(=O)O; Cit = NC(=O)NCCC[C@H](N)C(=O)O; NMeL = CN[C@@H](CC(C)C)C(=O)O; Ahp(2) = CCCCC[C@H](N)C(=O)O; NMeNle = CCCC[C@H](NC)C(=O)O; Tle = CC(C)(C)[C@H](N)C(=O)O; NHexGly = CCCCCCNCC(=O)O; Nle = CCCC[C@H](N)C(=O)O; Orn = NCCC[C@H](N)C(=O)O; Aun = NCCCCCCCCCCC(=O)O; AEEA = NCCOCCOCC(=O)O; Allyl = C=CC*
Target: T1, mouse VISTA (mVISTA) (Mus musculus, UniProt Q9D659)
T1 construct: expressed in transfected cells; host or cells: Human embryonic kidney 293T cells
T1 sequence (Q9D659 33-308): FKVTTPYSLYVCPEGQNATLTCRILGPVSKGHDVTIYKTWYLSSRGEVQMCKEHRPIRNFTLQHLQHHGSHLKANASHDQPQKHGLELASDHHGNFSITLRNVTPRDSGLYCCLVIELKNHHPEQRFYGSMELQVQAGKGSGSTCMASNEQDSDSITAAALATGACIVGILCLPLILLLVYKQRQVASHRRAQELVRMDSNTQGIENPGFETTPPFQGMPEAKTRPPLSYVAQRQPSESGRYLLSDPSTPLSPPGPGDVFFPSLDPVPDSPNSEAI
Assay: Cell-Based Binding High-Content Assay For mVISTA (HC CBA mVISTA)
Outline: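 This high-content binding assay uses HEK293T cells expressing murine VISTA, measuring displacement of 2 nM biotinylated peptide by fluorescent streptavidin imaging. IC50 values come from four-parameter logistic fitting.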

[1] = the 19th table, scaffold drawing 22, read-out: HC CBA mVISTA IC50
[2] = 293T cells expressing mouse VISTA, competition with biotinylated peptide (2 nM), read-out: HC CBA mVISTA IC50

pIC50 (cell-based binding high-content assay, mVISTA, read-out: HC CBA miPr ISTA IC50): 7.31
SMILES: CCCCCCN1CC(=O)N[C@@H](Cc2ccc(O)cc2)C(=O)N[C@@H](CC2CC2)C(=O)N[C@@H](CC(N)=O)C(=O)N[C@@H](CCCN)C(=O)N(C)[C@@H](CCCC)C(=O)N[C@@H](CCCCC)C(=O)N2CCC[C@H]2C(=O)N[C@@H](C(C)(C)C)C(=O)N[C@@H](CO)C(=O)N[C@H](C(=O)N[C@@H](CC(=O)NCCOCCOCC(=O)N[C@@H](CC(=O)O)C(=O)NCCOCCOCC(=O)NCCCCCCCCCCC(=O)O)C(=O)O)CSCC(=O)N[C@@H](Cc2ccccc2)C(=O)N[C@@H](Cc2ccc(O)cc2)C(=O)N[C@@H](CC(=O)O)C1=O [compound 2062] ({CH2CO}-FYD[NHexGly]Y[Ala(cPr)]N[Orn][NMeNle][Ahp(2)]P[Tle]SC[βAsp][AEEA]D[AEEA][Aun]-OH; thioether N-14)

pIC50 (the 20th table, scaffold drawing 23, read-out: HC CBA mVISTA IC50): 7.97
SMILES: C=CCOc1ccc(C[C@@H]2NC(=O)CSC[C@@H](C(=O)NCC(N)=O)NC(=O)[C@H](CC(=O)O)NC(=O)[C@H](C(C)C)NC(=O)[C@@H]3CCCN3C(=O)[C@H](CCCCC)NC(=O)[C@H](CC(C)C)NC(=O)[C@H](CCCNC(=N)N)NC(=O)CNC(=O)[C@H](C(C)C)NC(=O)[C@H](Cc3ccc(O)cc3)NC(=O)CN(CCCCCC)C(=O)[C@H](CC(=O)O)NC(=O)[C@H](Cc3ccc(O)cc3)NC2=O)cc1 [compound 1475] ({CH2CO}-Y(Allyl)YD[NHexGly]YVGRL[Ahp(2)]PVDCG-NH2; thioether N-14)

pIC50 (read-out: HC CBA mVISTA IC50): 7.92
SMILES: CCCCCCN1CC(=O)N[C@@H](Cc2ccc(O)cc2)C(=O)N[C@@H](CCCC)C(=O)N[C@@H](CC(N)=O)C(=O)N[C@@H](CCCNC(=N)N)C(=O)N(C)[C@@H](CCCC)C(=O)N[C@@H](CCCCC)C(=O)N2CCC[C@H]2C(=O)N[C@@H](C(C)(C)C)C(=O)N[C@@H](CO)C(=O)N[C@H](C(=O)NCCOCCOCC(=O)N[C@@H](CCC(=O)NCCOCCOCC(=O)NCCCCCCCCCCC(=O)O)C(=O)O)CSCC(=O)N[C@@H](Cc2ccc(O)cc2)C(=O)N[C@@H](Cc2ccc(O)cc2)C(=O)N[C@@H](CC(=O)O)C1=O [compound 2252] ({CH2CO}-YYD[NHexGly]Y[Nle]NR[NMeNle][Ahp(2)]P[Tle]SC[AEEA][γGlu][AEEA][Aun]-OH; thioether N-14)

pIC50 (read-out: HC CBA mVISTA IC50): 7.91
SMILES: CCCCCCN1CC(=O)N[C@@H](Cc2ccc(O)cc2)C(=O)N[C@@H](CCCC)C(=O)N[C@@H](CC(N)=O)C(=O)N[C@@H](CCCNC(=N)N)C(=O)N[C@@H](CC(C)C)C(=O)N[C@@H](CCCCC)C(=O)N2CCC[C@H]2C(=O)N[C@@H](C(C)C)C(=O)N[C@@H](CO)C(=O)N[C@H](C(=O)NCCOCCOCC(=O)N[C@@H](CCC(=O)NCCOCCOCC(=O)NCCCCCCCCCCC(=O)O)C(=O)O)CSCC(=O)N[C@@H](Cc2ccc3ccccc3c2)C(=O)N[C@@H](Cc2ccc(O)cc2)C(=O)N[C@@H](CC(=O)O)C1=O [compound 2223] ({CH2CO}-[2Nal]YD[NHexGly]Y[Nle]NRL[Ahp(2)]PVSC[AEEA][γGlu][AEEA][Aun]-OH; thioether N-14)

Continued, molecule first:

SMILES: CCCCCCN1CC(=O)N[C@@H](Cc2ccc(O)cc2)C(=O)N[C@@H](CCCC)C(=O)N[C@@H](CC(N)=O)C(=O)N[C@@H](CCCNC(=N)N)C(=O)N[C@@H](CC(C)C)C(=O)N[C@@H](CCCCC)C(=O)N2CCC[C@H]2C(=O)N[C@@H](C(C)C)C(=O)N[C@@H](CC(=O)O)C(=O)N[C@H](C(=O)N[C@@H](CO)C(=O)O)CSCC(=O)N[C@@H](Cc2cccc(C)c2)C(=O)N[C@@H](Cc2c[nH]c3ccccc23)C(=O)N[C@@H](CC(=O)O)C1=O [compound 1424] ({CH2CO}-[Phe(3-Me)]WD[NHexGly]Y[Nle]NRL[Ahp(2)]PVDCS-OH; thioether N-14)
pIC50 [1]: 7.92

SMILES: CCCCCCN1CC(=O)N[C@@H](Cc2ccc(O)cc2)C(=O)N[C@@H](CCCC)C(=O)N[C@@H](CC(N)=O)C(=O)N[C@@H](CCCNC(N)=O)C(=O)N(C)[C@@H](CCCC)C(=O)N[C@@H](CCCCC)C(=O)N2CCC[C@H]2C(=O)N[C@@H](C(C)C)C(=O)N[C@@H](CC(=O)O)C(=O)N[C@H](C(=O)NCC(=O)O)CSCC(=O)N[C@@H](Cc2ccccc2)C(=O)N[C@@H](Cc2ccc(O)cc2)C(=O)N[C@@H](CC(=O)O)C1=O [Example 1082] ({CH2CO}-FYD[NHexGly]Y[Nle]N[Cit][NMeNle][Ahp(2)]PVDCG-OH; thioether N-14)
pIC50 (293T cells expressing mouse VISTA, competition with biotinylated peptide (2 nM), read-out: CBA mVISTA IC50): 8.09

SMILES: CCCCCCN1CC(=O)N[C@@H](Cc2ccc(O)cc2)C(=O)N[C@@H](CCCC)C(=O)N[C@@H](CC(N)=O)C(=O)N[C@@H](CCCNC(=N)N)C(=O)N(C)[C@@H](CCCC)C(=O)N[C@@H](CCCCC)C(=O)N(C)[C@@H](CC(C)C)C(=O)N[C@@H](C(C)C)C(=O)N[C@@H](CO)C(=O)N[C@H](C(=O)N[C@@H](CC(=O)NCCOCCOCC(=O)NCCCCCCCCCCC(=O)O)C(=O)O)CSCC(=O)N[C@@H](Cc2ccccc2)C(=O)N[C@@H](Cc2c[nH]c3ccccc23)C(=O)N[C@@H](CC(=O)O)C1=O [Example 2180] ({CH2CO}-FWD[NHexGly]Y[Nle]NR[NMeNle][Ahp(2)][NMeL]VSC[βAsp][AEEA][Aun]-OH; thioether N-14)
pIC50 (read-out: HC CBA mVISTA IC50): 7.73

SMILES: CCCCCCN1CC(=O)N[C@@H](Cc2ccc(O)cc2)C(=O)N[C@@H](CCCC)C(=O)N[C@@H](CC(N)=O)C(=O)N[C@@H](CCCNC(=N)N)C(=O)N(C)[C@@H](CCCC)C(=O)N[C@@H](CCCCC)C(=O)N2CCC[C@H]2C(=O)N[C@@H](C(C)(C)C)C(=O)N[C@@H](CC(=O)O)C(=O)N[C@H](C(=O)NCC(N)=O)CSCC(=O)N[C@@H](Cc2ccccc2)C(=O)N[C@@H](Cc2c[nH]c3ccccc23)C(=O)N[C@@H](CC(=O)O)C1=O [Example 1396] ({CH2CO}-FWD[NHexGly]Y[Nle]NR[NMeNle][Ahp(2)]P[Tle]DCG-NH2; thioether N-14)
pIC50 (read-out: HC CBA mVISTA IC50): 7.57

SMILES: CCCCCCN1CC(=O)N[C@@H](Cc2ccc(O)cc2)C(=O)N[C@@H](CCCC)C(=O)N[C@@H](CC(N)=O)C(=O)N[C@@H](CCCNC(=N)N)C(=O)N[C@@H](CC(C)C)C(=O)N[C@@H](CCCCC)C(=O)N2CCC[C@H]2C(=O)N[C@@H](C(C)C)C(=O)N[C@@H](CC(=O)O)C(=O)N[C@H](C(=O)NCC(=O)O)CSCC(=O)N[C@@H](Cc2cccc(C)c2)C(=O)N[C@@H](Cc2c[nH]c3ccccc23)C(=O)N[C@@H](CC(=O)O)C1=O [compound 1420] ({CH2CO}-[Phe(3-Me)]WD[NHexGly]Y[Nle]NRL[Ahp(2)]PVDCG-OH; thioether N-14)
pIC50 [1]: 8.70

SMILES: CCCCCCN1CC(=O)N[C@@H](Cc2ccc(O)cc2)C(=O)N[C@@H](C(C)C)C(=O)NCC(=O)N[C@@H](CCCNC(=N)N)C(=O)N[C@@H](CC(C)C)C(=O)N[C@@H](CCCCC)C(=O)N2CCC[C@H]2C(=O)N[C@@H](C(C)C)C(=O)N[C@@H](CO)C(=O)N[C@H](C(=O)NCC(=O)O)CSCC(=O)N[C@@H](Cc2ccccc2)C(=O)N[C@@H](Cc2ccc(O)cc2)C(=O)N[C@@H](CC(=O)O)C1=O [Example 1063] ({CH2CO}-FYD[NHexGly]YVGRL[Ahp(2)]PVSCG-OH; thioether N-14)
pIC50 [2]: 7.54

SMILES: CCCCCCN1CC(=O)N[C@@H](Cc2ccc(O)cc2)C(=O)N[C@@H](CCCCC)C(=O)NCC(=O)N[C@@H](CCCNC(=N)N)C(=O)N[C@@H](CC(C)C)C(=O)N[C@@H](CCCCC)C(=O)N2CCC[C@H]2C(=O)N[C@@H](C(C)C)C(=O)N2CCC[C@H]2C(=O)N[C@H](C(=O)NCC(N)=O)CSCC(=O)N[C@@H](Cc2ccccc2)C(=O)N[C@@H](Cc2ccc(O)cc2)C(=O)N[C@@H](CC(=O)O)C1=O [Example 1100] ({CH2CO}-FYD[NHexGly]Y[Ahp(2)]GRL[Ahp(2)]PVPCG-NH2; thioether N-14)
pIC50 [2]: 7.75

From US20240218022A1, “ANTI-VISTA MACROCYCLIC PEPTIDES AND COMPOSITIONS” (BRISTOL-MYERS SQUIBB COMPANY, priority 2022, published 2024)
